This is an account of results in US20220125052A1, “Herbicidal Compositions” (SYNGENTA CROP PROTECTION AG, priority 2019, published 2022).

What all share (test): Post-emergence efficacy (B1), glasshouse spray test
What all share (format): in vivo

Test [1] concerns Amaranthus palmeri (AMAPA). To be noted: 500 g/Ha, evaluated after 13 days, 100=total damage to plant, 0=no damage to plant. Here is the method:
(§1) B1 Post-emergence efficacy Seeds of a variety of test species were sown in standard laom-based soil in pots:—Ipomoea hederacea (IPOHE), Euphorbia heterophylla (EPHHL), Chenopodium album (CHEAL), Amaranthus palmeri (AMAPA), Lolium perenne (LOLPE), Digitaria sanguinalis (DIGSA), Eleusine indica (ELEIN), Echinochloa crus-galli (ECHCG), Setaria faberi (SETFA). After cultivation for 14 days (post-emergence) under controlled conditions in a glasshouse (at 24/16° C., day/night; 14 hours light; 65% humidity), the plants were sprayed with an aqueous spray solution derived from the dissolution of the technical active ingredient Formula (I) in a small amount of acetone and a special solvent and emulsifier mixture referred to as IF50 (11.12% Emulsogen EL360 TM+44.44% N-methylpyrrolidone+44.44% Dowanol DPM glycol ether), to create a 50 g/l solution which was then diluted to required concentration using 0.25% or 1% Empicol ESC70 (Sodium lauryl ether sulphate)+1% ammonium sulphate as diluent. The delivery of the aqueous spray solution was via a laboratory track sprayer which delivered the aqueous spray composition at a rate of 200 litres per hectare, using a flat fan nozzle (Teejet 11002VS) and an application volume of 200 litre/ha (at 2 bar). The test plants were then grown in a glasshouse under controlled conditions (at 24/16° C., day/night; 14 hours light; 65% humidity) and watered twice daily. After 13 days the test was evaluated (100=total damage to plant; 0=no damage to plant).

Test [2] relates to Chenopodium album (CHEAL). To be noted: 500 g/Ha, evaluated after 13 days, 100=total damage to plant, 0=no damage to plant. Here is the method: as §1
The test system of test [3] is Digitaria sanguinalis (DIGSA). The conditions noted are these: 500 g/Ha, evaluated after 13 days, 100=total damage to plant, 0=no damage to plant. Here is the method:
as §1

The subject of test [4] is Echinochloa crus-galli (ECHCG). The conditions noted are these: 500 g/Ha, evaluated after 13 days, 100=total damage to plant, 0=no damage to plant. Here is the method:
as §1

The test system of test [5] is Euphorbia heterophylla (EPHHL). To be noted: 500 g/Ha, evaluated after 13 days, 100=total damage to plant, 0=no damage to plant. Here is the method:
as §1

The next test deals with Setaria faberi (SETFA). To be noted: 500 g/Ha, evaluated after 13 days, 100=total damage to plant, 0=no damage to plant. The procedure: as §1
The subject of the next test is Lolium perenne (LOLPE). To be noted: evaluated after 13 days, 100=total damage to plant, 0=no damage to plant. The procedure: as §1
The test system of a further test is Eleusine indica (ELEIN). To be noted: 500 g/Ha, evaluated after 13 days, 100=total damage to plant, 0=no damage to plant. Here is the method: as §1

As to `O=C(O)CC[n+]1ccc(-c2cccnn2)cn1.[Cl-]` [Compound 1.027, 3-(4-pyridazin-3-ylpyridazin-1-ium-1-yl)propanoic acid chloride], the “Control of weed species after post-emergence application: AMAPA” value in test [1] is recorded as 100. Further, the “Control of weed species after post-emergence application: CHEAL” value in test [2] was determined as 100. The “Control of weed species after post-emergence application: DIGSA” value (shortened to “Control of weed species … DIGSA”) in test [3] was found to be 100. In test [4], the “Control of weed species after post-emergence application: ECHCG” value (“Control of weed species … ECHCG” for short) came to 100. In addition, the “Control of weed species after post-emergence application: EPHHL” value in test [5] stood at 100. In the test with Setaria faberi (SETFA), the “Control of weed species after post-emergence application: SETFA” value (“Control of weed species … SETFA” below) worked out at 100.

`O=C(O)CC[n+]1ccc(-c2ncccn2)cn1` [Compound 1.023, 3-(4-pyrimidin-2-ylpyridazin-1-ium-1-yl)propanoic acid 2,2,2-trifluoroacetate]: the pest or weed control at 500 g/ha in the test with Lolium perenne (LOLPE) (Lolium perenne, 312 h, read-out: Control of weed species after post-emergence application: LOLPE) worked out at 90%.

As for `Cl.N[C@@H](CCC[n+]1ccc(-c2ncccn2)cn1)C(=O)O.[Cl-]` [Compound 1.030, [(1S)-1-carboxy-4-(4-pyrimidin-2-ylpyridazin-1-ium-1-yl)butyl]-ammonium dichloride], the “Control of weed species … DIGSA” value in test [3] is reported as 100. In addition, the “Control of weed species … ECHCG” value in test [4] turned out to be 100. In addition, in the test with Setaria faberi (SETFA), the “Control of weed species … SETFA” value was found to be 100.

Regarding `O=C(O)CC[n+]1ccc(-c2ncccn2)cn1.[Cl-]` [Compound 1.010, 3-(4-pyrimidin-2-ylpyridazin-1-ium-1-yl)propanoic acid chloride], the “Control of weed species after post-emergence application: LOLPE” value in the test with Lolium perenne (LOLPE) (500 g/Ha) stood at 90.

As for `O=C(O)CC[n+]1ccc(-c2ncccn2)cn1.[Br-]` [Compound 1.021, 3-(4-pyrimidin-2-ylpyridazin-1-ium-1-yl)propanoic acid bromide], in test [3], the “Control of weed species … DIGSA” value came to 100. Also, in test [4], the “Control of weed species … ECHCG” value is given as 100. Also, in the test on Eleusine indica (ELEIN), the “Control of weed species after post-emergence application: ELEIN” value is reported as 100. In addition, the “Control of weed species after post-emergence application: EPHHL” value in test [5] was determined as 100. The “Control of weed species … SETFA” value with Setaria faberi (SETFA) was determined as 100.
